Laboratory results from EP0093484A2, “Antibacterial monic acid derivatives” (BEECHAM GROUP PLC, priority 1982, dated 1983).

Columns and labels:
M. suipneumoniae LABER = assay: Anti-mycoplasmal activity, MIC in Friis broth agarose; format: cell-based; details: Friis broth solidified with 0.9% agarose, 6 days incubation at 37°C
Strep. agalactiae SPA1 = assay: Veterinary bacteria, MIC by two fold serial dilution in agar; details: Strep. agalactiae SPA1; Diagnostic Sensitivity Test Agar; 18 hours at 37°C
Description: (§1) The activity of the compounds of the Examples against various organisms important in veterinary infections was determined using two fold serial dilutions in Diagnostic Sensitivity Test Agar inoculated with 10^4 organisms.

Strep. dysgalactiae SPD1 = assay: as above; details: Strep. dysgalactiae SPD1; Diagnostic Sensitivity Test Agar; 18 hours at 37°C
Description: as §1

M. suipneumoniae UCD 1 = assay: Anti-mycoplasmal activity, MIC in Friis broth agarose; format: cell-based; details: Friis broth solidified with 0.9% agarose, 6 days incubation at 37°C
Bacillus subtilis 6633 = assay: Human bacteria, MIC by serial dilution in nutrient agar; format: cell-based; details: nutrient agar with 5% chocolated horse blood, 18 hours at 37°C
K. aerogenes A = assay: as above; format: cell-based; details: nutrient agar with 5% chocolated horse blood, 18 hours at 37°C
M. suipneumoniae HK(2) = assay: Anti-mycoplasmal activity, MIC in Friis broth agarose; format: cell-based; details: Friis broth solidified with 0.9% agarose, 6 days incubation at 37°C
M. bovis NCTC 10131 = assay: microbe, parasite or virus in culture; format: cell-based; details: M. bovis NCTC 10131; Friis broth solidified with 0.9% agarose; 6 days incubation at 37°C
[1] = system: M. bovigenitalium ATCC 14173; assay: Anti-mycoplasmal activity, MIC in Friis broth agarose; format: cell-based; details: Friis broth solidified with 0.9% agarose, 6 days incubation at 37°C
Strep. spp. 64/848-C = assay: Human bacteria, MIC by serial dilution in nutrient agar; format: cell-based; details: nutrient agar with 5% chocolated horse blood, 18 hours at 37°C
[2] = system: Corynebacterium pyogenes CY1; assay: Veterinary bacteria, MIC by two fold serial dilution in agar; details: Corynebacterium pyogenes CY1; Diagnostic Sensitivity Test Agar; 18 hours at 37°C
Description: as §1

Strep. uberis SPU1 = assay: as above; details: Strep. uberis SPU1; Diagnostic Sensitivity Test Agar; 18 hours at 37°C
Description: as §1

M. suipneumoniae MS16 = assay: Anti-mycoplasmal activity, MIC in Friis broth agarose; format: cell-based; details: Friis broth solidified with 0.9% agarose, 6 days incubation at 37°C
[3] = system: Staph. aureus 152 (pen. sens.); assay: Veterinary bacteria, MIC by two fold serial dilution in agar; details: Staph. aureus 152 (pen. sens.); Diagnostic Sensitivity Test Agar; 18 hours at 37°C
Description: as §1

[4] = system: Strep. pyogenes R80/421-A; assay: Human bacteria, MIC by serial dilution in nutrient agar; format: cell-based; details: nutrient agar with 5% chocolated horse blood, 18 hours at 37°C
E. coli ESS = assay: as above; format: cell-based; details: nutrient agar with 5% chocolated horse blood, 18 hours at 37°C
E. coli NCTC 10418 [5] = assay: as above; format: cell-based; details: E. coli NCTC 10418 (human panel); nutrient agar with 5% chocolated horse blood; 18 hours at 37°C
P. mirabilis 889 = assay: as above; format: cell-based; details: nutrient agar with 5% chocolated horse blood, 18 hours at 37°C
Staph. aureus Russell = assay: as above; format: cell-based; details: nutrient agar with 5% chocolated horse blood, 18 hours at 37°C
M. pneumoniae ATCC 15492 = assay: Anti-mycoplasmal activity, MIC in Friis broth agarose; format: cell-based; details: Friis broth solidified with 0.9% agarose, 6 days incubation at 37°C
[6] = system: Corynebacterium xerosis 9755; assay: Human bacteria, MIC by serial dilution in nutrient agar; format: cell-based; details: nutrient agar with 5% chocolated horse blood, 18 hours at 37°C
[7] = system: Pasteurella multocida 1633; assay: as above; format: cell-based; details: nutrient agar with 5% chocolated horse blood, 18 hours at 37°C
Past. multocida PA1 = assay: Veterinary bacteria, MIC by two fold serial dilution in agar; details: Past. multocida PA1; Diagnostic Sensitivity Test Agar; 18 hours at 37°C
Description: as §1

M. suipneumoniae Str. 11 = assay: Anti-mycoplasmal activity, MIC in Friis broth agarose; format: cell-based; details: Friis broth solidified with 0.9% agarose, 6 days incubation at 37°C
M. suipneumoniae JF 435 = assay: as above; format: cell-based; details: Friis broth solidified with 0.9% agarose, 6 days incubation at 37°C
E. coli NCTC 10418 [8] = assay: Veterinary bacteria, MIC by two fold serial dilution in agar; details: E. coli NCTC 10418 (veterinary panel); Diagnostic Sensitivity Test Agar; 18 hours at 37°C
Description: as §1

[9] = system: Strep. suis (group D) SPS11; assay: as above; details: Strep. suis (group D) SPS11; Diagnostic Sensitivity Test Agar; 18 hours at 37°C
Description: as §1

[10] = system: M. suipneumoniae ATCC 25095; assay: Anti-mycoplasmal activity, MIC in Friis broth agarose; format: cell-based; details: Friis broth solidified with 0.9% agarose, 6 days incubation at 37°C
Staph. aureus W2827 = assay: Human bacteria, MIC by serial dilution in nutrient agar; format: cell-based; details: nutrient agar with 5% chocolated horse blood, 18 hours at 37°C
[11] = system: M. suipneumoniae J2206/183b; assay: Anti-mycoplasmal activity, MIC in Friis broth agarose; format: cell-based; details: Friis broth solidified with 0.9% agarose, 6 days incubation at 37°C
[12] = system: M. suipneumoniae NCTC 10110; assay: as above; format: cell-based; details: Friis broth solidified with 0.9% agarose, 6 days incubation at 37°C
[13] = system: Haemophilus influenzae Wy21; assay: Human bacteria, MIC by serial dilution in nutrient agar; format: cell-based; details: nutrient agar with 5% chocolated horse blood, 18 hours at 37°C
Strep. faecalis I = assay: as above; format: cell-based; details: nutrient agar with 5% chocolated horse blood, 18 hours at 37°C
Staph. aureus Oxford = assay: Veterinary bacteria, MIC by two fold serial dilution in agar; details: Staph. aureus Oxford (veterinary panel); Diagnostic Sensitivity Test Agar; 18 hours at 37°C
Description: as §1

M. hyorhinis ATCC 23234 = assay: Anti-mycoplasmal activity, MIC in Friis broth agarose; format: cell-based; details: Friis broth solidified with 0.9% agarose, 6 days incubation at 37°C
[14] = system: M. hyosynoviae ATCC 25591; assay: as above; format: cell-based; details: Friis broth solidified with 0.9% agarose, 6 days incubation at 37°C
Bord. bronchiseptica BO9 = assay: Veterinary bacteria, MIC by two fold serial dilution in agar; details: Bord. bronchiseptica BO9; Diagnostic Sensitivity Test Agar; 18 hours at 37°C
Description: as §1

“1-(p-Methylsulfinylphenyl)ethyl monate A [Example 8]” was tested, and the MIC (M. suipneumoniae LABER) was 2.5 µg/mL, the MIC (Strep. agalactiae SPA1) was >80 µg/mL and the MIC (Strep. dysgalactiae SPD1) was 2.5 µg/mL. The MIC (M. suipneumoniae UCD 1) was 2.5 µg/mL, the MIC (Bacillus subtilis 6633) was 4.0 µg/mL and the MIC (K. aerogenes A) was >128 µg/mL. For the same substance, the MIC (M. suipneumoniae HK(2)) was 2.5 µg/mL, the MIC (M. bovis NCTC 10131) was “.025 µg/mL” and the MIC [1] was 0.1 µg/mL. The MIC (Strep. spp. 64/848-C) was 4.0 µg/mL, the MIC [2] was >80 µg/mL and the MIC (Strep. uberis SPU1) was “.625 µg/mL”. For the same substance, the MIC (M. suipneumoniae MS16) was 1.0 µg/mL, the MIC [3] was 5.0 µg/mL and the MIC [4] was 2.0 µg/mL. The MIC (E. coli ESS) was 4.0 µg/mL, the MIC (E. coli NCTC 10418 [5]) was >128 µg/mL and the MIC (P. mirabilis 889) was >128 µg/mL. For the same substance, the MIC (Staph. aureus Russell) was 32 µg/mL, the MIC (M. pneumoniae ATCC 15492) was 10 µg/mL and the MIC [6] was >128 µg/mL. It also gave an MIC [7] of 8.0 µg/mL, an MIC (Past. multocida PA1) of 10 µg/mL and an MIC (M. suipneumoniae Str. 11) of 1.0 µg/mL. The MIC (M. suipneumoniae JF 435) was 2.5 µg/mL, the MIC (E. coli NCTC 10418 [8]) was >80 µg/mL and the MIC [9] was 80 µg/mL. It also gave an MIC [10] of 2.5 µg/mL, an MIC (Staph. aureus W2827) of 32 µg/mL and an MIC [11] of 2.5 µg/mL. For the same substance, the MIC [12] was 2.5 µg/mL, the MIC [13] was 1.0 µg/mL and the MIC (Strep. faecalis I) was >128 µg/mL. It also gave an MIC (Staph. aureus Oxford) of 20 µg/mL, an MIC (M. hyorhinis ATCC 23234) of 1.0 µg/mL and an MIC [14] of 0.5 µg/mL. For the same substance, the MIC (Bord. bronchiseptica BO9) was >80 µg/mL.
